Test results: patent US11717508B2, “Compounds, compositions, and methods for inhibiting bacterial growth” (priority 2016, dated 2023)
“Also recorded” adds a separate entry of the source. Read-outs that look alike come from different tables or passages of the source.

Assays:
[1] = test system: CDC1551(hspX′:GFP) reporter; experiment: microbe, parasite or virus in culture; format: cell-based, Mycobacterium tuberculosis; conditions: for EC50: Mycobacterium tuberculosis, read-out: EC50 of inhibition of CDC1551(hspX′:GFP) reporter (dosR-dependent GFP) fluorescence
Mtb = experiment: microbe, parasite or virus in culture; format: cell-based; conditions: Mycobacterium tuberculosis, read-out: growth inhibition EC50
[2] = test system: DosR regulon genes (dosR, hspX and tgs1); experiment: NO and vitamin C sensitivity assays (RT-PCR); format: cell-based, Mycobacterium tuberculosis
DosS [3] = target: T1, DosS (Mycobacterium tuberculosis, UniProt P9WGK3); format: biochemical
DosS [4] = target: T1, DosS; experiment: DosS autophosphorylation assay; format: biochemical
DosT = DosT (Mycobacterium tuberculosis, UniProt P9WGK1); experiment: DosT autophosphorylation assay; format: biochemical
[5] = test system: DosR regulon genes (dosR, hspX and tgs1); experiment: RT-PCR of DosR regulon genes under hypoxia; format: cell-based, Mycobacterium tuberculosis; conditions: 6 days
DosS [6] = target: T1, DosS; experiment: LC-MS analysis of DosS reaction samples for heme-artemisinin adducts; format: biochemical; conditions: DosS treated with artemisinin vs DMSO
Mtb Erdman = conditions: ERDMAN, 360 h

T1 sequence (P9WGK3 whole entry): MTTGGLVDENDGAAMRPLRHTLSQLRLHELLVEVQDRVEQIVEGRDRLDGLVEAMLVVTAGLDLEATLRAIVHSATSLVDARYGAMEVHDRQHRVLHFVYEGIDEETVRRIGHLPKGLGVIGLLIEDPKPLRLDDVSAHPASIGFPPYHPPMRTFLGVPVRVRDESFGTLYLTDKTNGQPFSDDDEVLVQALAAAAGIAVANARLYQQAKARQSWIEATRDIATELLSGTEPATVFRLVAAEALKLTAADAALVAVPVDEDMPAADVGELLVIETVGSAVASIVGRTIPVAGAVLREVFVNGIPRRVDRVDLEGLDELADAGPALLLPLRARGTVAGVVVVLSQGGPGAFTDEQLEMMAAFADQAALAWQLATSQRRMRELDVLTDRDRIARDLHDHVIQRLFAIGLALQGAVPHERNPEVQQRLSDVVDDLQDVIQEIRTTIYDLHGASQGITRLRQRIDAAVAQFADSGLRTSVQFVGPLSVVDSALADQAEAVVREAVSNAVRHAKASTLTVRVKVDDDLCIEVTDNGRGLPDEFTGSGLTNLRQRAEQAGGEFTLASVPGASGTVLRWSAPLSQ
Sequence of DosT (P9WGK1 whole entry): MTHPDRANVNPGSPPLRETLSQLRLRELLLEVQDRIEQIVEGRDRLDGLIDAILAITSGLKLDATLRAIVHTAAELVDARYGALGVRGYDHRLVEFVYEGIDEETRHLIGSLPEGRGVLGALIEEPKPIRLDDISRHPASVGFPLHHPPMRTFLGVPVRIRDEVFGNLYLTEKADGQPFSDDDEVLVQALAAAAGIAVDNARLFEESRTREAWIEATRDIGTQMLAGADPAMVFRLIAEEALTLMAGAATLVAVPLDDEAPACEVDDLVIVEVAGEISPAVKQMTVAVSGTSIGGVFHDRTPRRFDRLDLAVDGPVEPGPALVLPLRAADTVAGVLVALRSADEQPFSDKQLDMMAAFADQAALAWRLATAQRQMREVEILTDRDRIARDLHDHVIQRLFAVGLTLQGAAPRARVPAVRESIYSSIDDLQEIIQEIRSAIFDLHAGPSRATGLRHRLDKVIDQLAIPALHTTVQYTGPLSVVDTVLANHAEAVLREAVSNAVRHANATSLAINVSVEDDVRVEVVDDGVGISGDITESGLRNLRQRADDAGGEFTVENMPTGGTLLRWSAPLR

SMILES: C[C@@H]1CC(C)(C)C[C@]2(C1)NC(=O)NC2=O (racemic) [HC102A, 7,7,9-trimethyl-1,3-diazaspiro[4.5]decane-2,4-dione]
- activity of compound regenerated by organic synthesis [1]: confirmed to have the activity of the commercially sourced compounds
- EC50 ([1]; 6 days of treatment): 12.4 µM
- EC50 (Mtb; 6 days, optical density, unit given as M): > 80 µM
- repression of tgs1 transcript following treatment with DETA-NONOate ([2]; 80 μM pretreatment 24 h, 50 μM DETA-NONOate 2 h): 3 fold
- repression of tgs1 transcript in vitamin C treated cells ([2]; 80 μM pretreatment 24 h, 2 mM vitamin C 2 h): 2 fold
- inhibition of induction of DosR regulon (dosR, hspX, tgs1) by NO and vitamin C ([2]; pretreatment 24 h, induction 2 h): strongly inhibited the induction; also recorded: inhibited the induction of DosR regulon
- effect on redox status of DosS heme (DosS [3]; UV-visible spectra vs DMSO control): no impact on the redox status; also recorded: no effect in modulating redox status of DosS
- IC50 (DosS [4]; 1 hour incubation, read-out: IC50 of inhibition of DosS autophosphorylation): 1.9 µM
- maximal inhibition of DosS autophosphorylation (DosS [4]; dose response): ~60%
- impact on DosT autophosphorylation (DosT; dose response, 1 hour): limited impact

SMILES: C[C@@H]1CC[C@H]2[C@@H](C)C(=O)O[C@@H]3O[C@]4(C)CC[C@@H]1[C@]32OO4 [HC101A, artemisinin, reference compound]
- inhibition of dosRS (real-time PCR) [5]: 37 fold
- inhibition of hspX (real-time PCR) [5]: 51 fold
- inhibition of tgs1 (real-time PCR) [5]: 166 fold
- formation of heme-artemisinin adducts (LC-MS) (DosS [6]): alkylates the sensor kinase heme to form heme-artemisinin adducts

SMILES: O=C(Nc1cccc(O)c1)c1cccc(NC(=O)c2cccs2)c1 [HC103A, N-[3-[(3 hydroxyphenyl)carbamoyl]phenyl]thiophene-2-carboxamide]
- activity of compound regenerated by organic synthesis [1]: confirmed to have the activity of the commercially sourced compounds
- EC50 ([1]; […]): 2.7 µM
- EC50 (Mtb; […]): > 80 µM
- inhibition of induction of DosR regulon (dosR, hspX, tgs1) by NO and vitamin C [2]: strongly inhibited the induction; also recorded: inhibited the induction of DosR regulon
- repression of tgs1 transcript following treatment with DETA-NONOate [2]: 50 fold
- repression of tgs1 transcript in vitamin C treated cells [2]: 3 fold
- effect on redox status of DosS heme (DosS [3]): no impact on the redox status; also recorded: no effect in modulating redox status of DosS
- IC50 (DosS [4]): 0.5 µM
- maximal inhibition of DosS autophosphorylation (DosS [4]): ~90%
- IC50 (DosT): ~5 µM
- reduction of Mtb viability when treated with 5 μM INH (Mtb Erdman): ~50%
